Data published in PubChem BioAssay (NCI).
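The compound was tested at five concentrations on cells cultured in 96-well plates, with a 48-hour exposure period. TGI marks complete inhibition of growth.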 Where a SMILES comes first, the peptide text is derived from it. The star is where a group is joined. Ethyl(2-NMe3+) = C[N+](C)(C)CC*; Boc = CC(C)(C)OC(=O)*

Columns and labels:
Assay in all cases: growth of human tumour cells (NCI), 48 h
[1] = tested on: SNB-75 CNS
[2] = tested on: CCRF-CEM leukemia
[3] = tested on: 786-0 renal
[4] = tested on: RPMI-8226 leukemia
[5] = tested on: SW-620 colon
[6] = tested on: CAKI-1 renal
[7] = tested on: COLO 205 colon
[8] = tested on: SK-OV-3 ovarian
[9] = tested on: ACHN renal
[10] = tested on: A549 NSCLC
[11] = tested on: MALME-3M melanoma
[12] = tested on: SF-295 CNS
[13] = tested on: HCT-116 colon
[14] = tested on: PC-3 prostate
[15] = tested on: UO-31 renal
[16] = tested on: HOP-92 NSCLC
[17] = tested on: SR leukemia

Compound | TGI [1] [µM] | TGI [2] [µM] | TGI [3] [µM] | TGI [4] [µM] | TGI [5] [µM] | TGI [6] [µM] | TGI [7] [µM] | TGI [8] [µM] | TGI [9] [µM] | TGI [10] [µM] | TGI [11] [µM] | TGI [12] [µM] | TGI [13] [µM] | TGI [14] [µM] | TGI [15] [µM] | TGI [16] [µM] | TGI [17] [µM]
CN(N)/N=N/c1nc[nH]c1[N+](=O)[O-] | > 100 | 33 | 55.2 | 57.3 | > 100 | 40.9 | > 100 | > 100 | > 100 | > 100 | > 100 | > 100 | > 100 | > 100 | > 100 | – | –
N#Cc1cc(-c2nc3c(F)cccc3s2)ccc1N | > 100 | > 100 | > 100 | > 100 | > 100 | > 100 | > 100 | > 100 | > 100 | > 100 | > 100 | > 100 | > 100 | > 100 | > 100 | > 100 | –
COc1ccc(N2C(=O)C3c4[nH]c5ccccc5c4C4CC(C)CC(C)C4C3C2=O)cc1 (centres undefined) | > 100 | > 100 | > 100 | > 100 | > 100 | – | > 100 | > 100 | > 100 | > 100 | > 100 | > 100 | > 100 | – | > 100 | > 100 | > 100
Cc1ccc(/C=C2\CN(C)CC3C2=NN(c2ccccc2)C3c2ccc(C)cc2)cc1 (centres undefined) | – | 95.7 | > 100 | – | > 100 | > 100 | > 100 | > 100 | > 100 | > 100 | > 100 | > 100 | > 100 | > 100 | > 100 | > 100 | –
COC(=O)C(Cc1ccc(Oc2cc(CC(NC(=O)c3ccccc3)C(=O)OC)ccc2OC)cc1)NC(=O)c1ccccc1 (centres undefined) | > 100 | – | 30 | > 69.3 | > 100 | > 100 | > 73.2 | > 100 | > 55 | > 100 | 29.8 | > 100 | > 100 | > 85.8 | 24.2 | > 65.1 | –
COc1ccc(NC(=O)/C(=N/NC(N)=S)C2C(=O)NC(=S)NC2=O)c(OC)c1 | > 100 | > 100 | > 100 | > 100 | > 100 | > 100 | > 100 | > 100 | > 100 | > 100 | > 100 | > 100 | > 100 | > 100 | > 100 | > 100 | –
COC(=O)[C@@H](NC(=O)N(CCC#N)CCCN(C(=O)N[C@H](Cc1ccccc1)C(=O)OC)c1ccccc1)C(C)C | > 100 | > 100 | > 100 | > 100 | > 100 | > 100 | > 100 | > 100 | > 100 | > 100 | 92.7 | > 100 | > 100 | > 100 | > 100 | 80 | –
CN(C)CC1CCCC(CN(C)C)C1=NOC(=O)c1ccccc1 (centres undefined) | > 100 | > 100 | > 100 | > 100 | > 100 | – | > 100 | > 100 | > 100 | > 100 | > 100 | > 100 | > 100 | – | > 100 | > 100 | > 100
CC1OC(OC2C(OC(=O)[C@@H]3CC(C)(C)C[C@@H]4C5=CC[C@@H]6[C@@]7(C)C[C@H](O)[C@H](OC8OC(CO)C(O)C(O)C8O)[C@@](C)(CO)C7[C@H](O)C[C@@]6(C)[C@]5(C)C[C@@H](O)[C@H]43)OCC(O)C2O)C(O)C(O)C1O (some centres undefined) | > 15 | > 15 | > 15 | – | > 15 | > 15 | > 15 | > 15 | > 15 | – | – | > 15 | > 15 | > 15 | > 15 | > 15 | –
CC1=C(C)C1[N+](=O)[O-] | > 100 | > 100 | > 100 | > 100 | > 100 | > 100 | > 100 | > 100 | > 100 | > 100 | > 100 | > 100 | > 100 | > 100 | > 100 | > 100 | –
NC(CCC(=O)NC(CSC(=O)N(O)c1ccccc1)C(=O)NCC(=O)O)C(=O)O (centres undefined) | > 1000 | > 1000 | > 1000 | – | > 1000 | > 1000 | > 1000 | > 1000 | > 1000 | > 1000 | > 1000 | > 1000 | > 1000 | – | > 1000 | > 1000 | > 1000
COc1cc(/C=C2\C(=O)N(c3ccccc3Cl)C(c3ccccc3)S2(=O)=O)cc(OC)c1OC (centres undefined) | – | 48.9 | > 100 | 42.9 | > 100 | > 100 | > 100 | > 100 | > 100 | > 100 | 89.3 | > 100 | > 100 | – | > 100 | > 100 | –
CN(C(=O)C1CCCCCC1=O)c1ccccc1Cl (centres undefined) | > 100 | – | > 100 | > 100 | > 100 | > 100 | > 100 | > 100 | > 100 | > 100 | > 100 | > 100 | > 100 | – | > 100 | > 100 | –
CC(NC(=O)C(Cc1ccc(OCC[N+](C)(C)C)cc1)NC(=O)OC(C)(C)C)C(=O)NC(Cc1ccccc1)C(=O)NCC(N)=O (centres undefined) (Boc-Y(Ethyl(2-NMe3+))AFG-NH2; configuration not given here) | 30.3 | – | 44.6 | > 100 | > 100 | > 100 | > 100 | 22.7 | > 100 | > 100 | 69.7 | 17.4 | > 100 | > 100 | > 100 | 29.6 | –
Cc1ccc(C(=O)Nc2ccc(CP(=O)(O)O)cc2CP(=O)(O)O)cc1NC(=O)c1cccc(NC(=O)Nc2cccc(C(=O)Nc3cc(C(=O)Nc4ccc(CP(=O)(O)O)cc4CP(=O)(O)O)ccc3C)c2)c1 | > 100 | > 100 | > 100 | > 100 | > 100 | > 100 | > 100 | > 100 | > 100 | > 100 | > 100 | > 100 | > 100 | > 100 | > 100 | – | –
